Results reported in patent publication US6677344B2, “Chymase inhibitor for the treatment of eosinophilia” (Daiichi Suntory Pharma Co., Ltd., priority 2000, dated 2004).

Key:
Human heart chymase = target: T1, Human heart chymase (Homo sapiens, UniProt P23946); experiment: Measurement of chymase inhibitory activity; format: biochemical; conditions: substrate Suc-Ala-Ala-Pro-Phe-MCA, 30° C., pH 7.5
T1 construct: Human heart chymase was purified according to the method of Urata et al; from tissue; host or cells: human heart
T1 sequence (P23946 22-247): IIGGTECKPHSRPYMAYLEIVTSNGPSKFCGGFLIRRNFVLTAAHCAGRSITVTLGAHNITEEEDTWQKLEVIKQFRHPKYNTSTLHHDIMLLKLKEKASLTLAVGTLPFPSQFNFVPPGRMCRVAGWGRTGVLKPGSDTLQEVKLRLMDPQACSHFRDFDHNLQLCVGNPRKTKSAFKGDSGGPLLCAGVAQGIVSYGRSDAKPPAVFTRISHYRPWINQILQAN
Procedure: Human heart chymase was purified according to the method of Urata et al. (J. Biol. Chem., 1990, 265, 22348). The inhibitory activity of the compound of the present invention was determined as follows. Purified enzyme was diluted with 0.1M tris-HCl buffer (pH=7.5), 1M sodium chloride, and 0.01% TritonX-100 to obtain an enzyme solution having appropriate concentrations. Suc-Ala-Ala-Pro-Phe-MCA (Peptide Institute Inc.) was dissolved in 10 mM dimethyl sulfoxide (hereinafter referred to as DMSO) and diluted 20-fold with 0.1M Tris-HCl buffer (pH 7.5) containing 1M sodium chloride and 0.01% TritonX-100 to an appropriate concentration to prepare substrate solution.
5 μl of the test sample in DMSO was added to 75 μl of the enzyme solution and preincubated at 30° C. for 10 minutes. Then, 20 μl of the substrate solution was added to the test sample-enzyme mixture, and incubated at 30° C. Ten minutes later, 50 μl of 30% acetic acid was added to stop the enzymatic reaction, and the amount of AMC formed was determined using a fluorophotometer. At the same time, 5 μl of DMSO in stead of the test sample was added and reacted simultaneously as a control. The inhibitory activity to human chymase was calculated based on the value of the control, and then the inhibition percentage and the 50% inhibition concentration (IC50) were determined.

[1] = system: Nippostrongylus brasiliensis (Nb); experiment: Number of eggs in feces in Nb infected mice; format: in vivo
Procedure: (§1) Male BALB/c mice (7-weeks old) were transcutaneously inflected with 750 parasitic worms of Nippostrongylus brasiliensis (Nb) (third stage larvae) in accordance with an already reported method (Int. Arch. Allergy Immunol. 117, Suppl. 1, 2, 1998). After two weeks, the number of eosinophils in the peripheral blood and the total number of leukocytes in the peripheral blood were measured. Further, at day 7 and day 10, the number of eggs in the feces was measured. The chymase inhibitor (Compound 18) was dissolved in saline and injected intraperitoneally in 0.2 ml amounts once a day continuously from the day before infection until the end of the test. Note that the control group was administered only saline. The number of cells in the peripheral blood was measured by sampling peripheral blood from the eye cavity. The eosinophils were stained with a Hinkelman's solution, then counted under a microscope. Further, the total number of leukocytes was measured under a microscope after staining with by a Turk's solution. The number of eggs in the feces was determined by obtaining individual feces of the mice, measuring their weight, then dissolving them in 1 ml of 10% formalin, counting the number of eggs in the feces solution under a microscope, then expressing the result as the number of eggs per gram of feces.

[2] = system: eosinophils in the peripheral blood of Nb infected mice; experiment: Increase in eosinophils of mice infected with Nippostrongylus brasiliensis (Nb); format: in vivo
Procedure: as §1

[3] = 50 mg/kg, intraperitoneal once a day, BALB/c mice, 2 weeks after Nb infection

## CC(C(=O)O)C(=O)Nc1cccc(S(=O)(=O)n2c(=O)[nH]c3cc(Cl)ccc3c2=O)c1 (stereo not shown) [Compound 13, 2-{3-[(7-chloro-2,4(1H,3H)-quinazolinedion-3-yl)sulfonyl]phenylaminocarbonyl}propionic acid]
Human heart chymase
  IC50: 300 nM

## Nc1cc(S(=O)(=O)n2c(=O)[nH]c3cc(Cl)ccc3c2=O)ccc1C(=O)[O-].[Na+] [Compound 18, 4-[(7-chloro-2,4(1H,3H)-quinazolinedion-3-yl)sulfonyl]anthranilic acid monosodium salt]
[1]; 50 mg/kg, intraperitoneal once a day, day 7 after Nb infection
  No. of Nb eggs in gram of feces, Day 7: 30541 ± 12501 eggs per gram of feces
[1]; 50 mg/kg, intraperitoneal once a day, day 10 after Nb infection
  No. of Nb eggs in gram of feces, Day 10: 558 ± 1248 eggs per gram of feces
[1]; day 7 or day 10 after Nb infection
  Difference in number of eggs of Nb versus group not administered: almost no difference
[2]; 2 mg/kg, intraperitoneal once a day, BALB/c mice, 2 weeks after Nb infection
  Number of eosinophils in peripheral blood, 2 weeks after infection: 1036 ± 240 no./mm^3
[2]; 2 mg/kg, intraperitoneal once a day, BALB/c mice
  Number of eosinophils in peripheral blood, before infection: 30 ± 12 no./mm^3
[2]; 10 mg/kg, intraperitoneal once a day, BALB/c mice, 2 weeks after Nb infection
  Number of eosinophils in peripheral blood, 2 weeks after infection: 818 ± 155 no./mm^3
[2]; 10 mg/kg, intraperitoneal once a day, BALB/c mice
  Number of eosinophils in peripheral blood, before infection: 36 ± 11 no./mm^3
[2]; [3]
  Number of eosinophils in peripheral blood, 2 weeks after infection: 360 ± 66 no./mm^3
  Total no. of leukocytes in peripheral blood 2 weeks after infection: 5820 ± 460 no./mm^3
[2]; 50 mg/kg, intraperitoneal once a day, BALB/c mice
  Number of eosinophils in peripheral blood, before infection: 32 ± 16 no./mm^3
[2]; 50 mg/kg/day, Dunnett's test, 2 weeks after infection
  Effect on Nb-induced increase in the number of eosinophils: significantly suppressed
[2]; Nb infected mice, 2 weeks after infection
  Effect on the total number of leukocytes in the peripheral blood: little effect
